Source: patent US20240116892A1, “HETEROCYCLIC AMIDE AND UREA COMPOUNDS AS JAK2 INHIBITORS” (Ajax Therapeutics, Inc., priority 2022, published 2024)

The molecules below were run against JAK2 (JH1 domain-catalytic, Y1007F, Y1008F) kinase (Homo sapiens (Human), UniProt O60674, Y1007F/Y1008F) (assay: JAK2 JH1 Domain Binding Assay). Settings: qPCR readout.
How it was run: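 Competitive binding format: test compound, DNA-tagged JAK2 JH1 (Y1007F/Y1008F; HEK293-expressed NFkB fusion) and ligand-coated magnetic beads incubated 1 h at room temperature. Kinase retained on beads released with 0.5 μmol/L non-biotinylated ligand, then measured by qPCR.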

JAK2 (JH1 domain-catalytic, Y1007F, Y1008F) kinase, sequence (O60674 849-1124 Y1007F/Y1008F): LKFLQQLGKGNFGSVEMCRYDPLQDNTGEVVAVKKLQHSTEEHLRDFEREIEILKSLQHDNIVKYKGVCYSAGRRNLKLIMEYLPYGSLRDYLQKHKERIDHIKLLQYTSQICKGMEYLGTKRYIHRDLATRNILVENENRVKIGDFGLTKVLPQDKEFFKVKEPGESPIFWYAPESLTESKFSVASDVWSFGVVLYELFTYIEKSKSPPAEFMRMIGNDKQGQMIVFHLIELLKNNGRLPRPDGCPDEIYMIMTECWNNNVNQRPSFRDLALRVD

Kd, 50 to 1000 nM:
CO[C@H]1CN(c2cnc3[nH]c(C)cc3n2)CC[C@@H]1N(C)C(=O)Nc1cc(C(F)(F)F)cn(C)c1=O [Example I-117-b, 1-((3S,4S)-3-methoxy-1-(6-methyl-5H-pyrrolo[2,3-b]pyrazin-2-yl)piperidin-4-yl)-1-methyl-3-(1-methyl-2-oxo-5-(trifluoromethyl)-1,2-dihydropyridin-3-yl)urea]
CO[C@H]1CN(c2cnc3[nH]cc(C)c3n2)CC[C@@H]1N(C)C(=O)Nc1cc(C(F)(F)F)cn(C)c1=O [Example I-118-b, 1-((3S,4S)-3-methoxy-1-(7-methyl-5H-pyrrolo[2,3-b]pyrazin-2-yl)piperidin-4-yl)-1-methyl-3-(1-methyl-2-oxo-5-(trifluoromethyl)-1,2-dihydropyridin-3-yl)urea]
Cn1cc(C(F)(F)F)cc(NC(=O)N(C)[C@H]2CC[C@H](c3cnc4[nH]ccc4n3)CC2)c1=O [Example I-120-a, trans-1-(4-(5H-pyrrolo[2,3-b]pyrazin-2-yl)cyclohexyl)-1-methyl-3-(1-methyl-2-oxo-5-(trifluoromethyl)-1,2-dihydropyridin-3-yl)urea]
COCc1cc2nc(N3CC[C@H](N(C)C(=O)Nc4cc(C(F)(F)F)cn(C)c4=O)C[C@@H]3C)cnc2[nH]1 [Example I-127-a, 1-((2S,4S)-1-(6-(methoxymethyl)-5H-pyrrolo[2,3-b]pyrazin-2-yl)-2-methylpiperidin-4-yl)-1-methyl-3-(1-methyl-2-oxo-5-(trifluoromethyl)-1,2-dihydropyridin-3-yl)urea]
COCc1cc2nc(N3CC[C@@H](N(C)C(=O)Nc4cc(C(F)(F)F)cn(C)c4=O)C[C@H]3C)cnc2[nH]1 [Example I-127-b, 1-((2R,4R)-1-(6-(methoxymethyl)-5H-pyrrolo[2,3-b]pyrazin-2-yl)-2-methylpiperidin-4-yl)-1-methyl-3-(1-methyl-2-oxo-5-(trifluoromethyl)-1,2-dihydropyridin-3-yl)urea]
CO[C@H]1C[C@@H](n2[nH]c3ncc(N4CCC(N(C)C(=O)Nc5cc(C(F)(F)F)cn(C)c5=O)CC4)cc3c2=O)C1 [Example I-130, 1-(1-(2-((1s,3s)-3-methoxycyclobutyl)-3-oxo-2,3-dihydro-1H-pyrazolo[3,4-b]pyridin-5-yl)piperidin-4-yl)-1-methyl-3-(1-methyl-2-oxo-5-(trifluoromethyl)-1,2-dihydropyridin-3-yl)urea]
CC(=O)Nc1cnc(N2CC[C@H](N(C)C(=O)Nc3cc(C(F)(F)F)cn(C)c3=O)C[C@@H]2C)cn1 [Example I-134-a, N-(5-((2S,4S)-2-methyl-4-(1-methyl-3-(1-methyl-2-oxo-5-(trifluoromethyl)-1,2-dihydropyridin-3-yl)ureido)piperidin-1-yl)pyrazin-2-yl)acetamide]

Kd, 10 to 50 nM:
CO[C@@H]1CN(c2cnc3[nH]cc(C)c3n2)CC[C@H]1N(C)C(=O)Nc1cc(C(F)(F)F)cn(C)c1=O [Example I-118-a, 1-((3R,4R)-3-methoxy-1-(7-methyl-5H-pyrrolo[2,3-b]pyrazin-2-yl)piperidin-4-yl)-1-methyl-3-(1-methyl-2-oxo-5-(trifluoromethyl)-1,2-dihydropyridin-3-yl)urea]
Cn1cc(C(F)(F)F)cc(NC(=O)N2CCO[C@H]3CN(c4cnc5[nH]ccc5n4)CC[C@@H]32)c1=O [Example I-128-a, (4aS,8aS)-N-(1-methyl-2-oxo-5-(trifluoromethyl)-1,2-dihydropyridin-3-yl)-6-(5H-pyrrolo[2,3-b]pyrazin-2-yl)octahydro-1H-pyrido[3,4-b][1,4]oxazine-1-carboxamide]
COCCOc1n[nH]c2ncc(N3CC[C@H](N(C)C(=O)Nc4cc(C(F)(F)F)cn(C)c4=O)C[C@@H]3C)cc12 [Example I-132-a, 1-((2S,4S)-1-(3-(2-methoxyethoxy)-1H-pyrazolo[3,4-b]pyridin-5-yl)-2-methylpiperidin-4-yl)-1-methyl-3-(1-methyl-2-oxo-5-(trifluoromethyl)-1,2-dihydropyridin-3-yl)urea]
COCCOc1n[nH]c2ncc(N3CC[C@@H](N(C)C(=O)Nc4cc(C(F)(F)F)cn(C)c4=O)C[C@H]3C)cc12 [Example I-132-b, 1-((2R,4R)-1-(3-(2-methoxyethoxy)-1H-pyrazolo[3,4-b]pyridin-5-yl)-2-methylpiperidin-4-yl)-1-methyl-3-(1-methyl-2-oxo-5-(trifluoromethyl)-1,2-dihydropyridin-3-yl)urea]
CC(=O)Nc1cnc(N2CC[C@@H](N(C)C(=O)Nc3cc(C(F)(F)F)cn(C)c3=O)C[C@H]2C)cn1 [Example I-134-b, N-(5-((2R,4R)-2-methyl-4-(1-methyl-3-(1-methyl-2-oxo-5-(trifluoromethyl)-1,2-dihydropyridin-3-yl)ureido)piperidin-1-yl)pyrazin-2-yl)acetamide]

Kd, 1000 to 5000 nM:
CO[C@H]1C[C@H](n2[nH]c3ncc(N4CCC(N(C)C(=O)Nc5cc(C(F)(F)F)cn(C)c5=O)CC4)cc3c2=O)C1 [Example I-119, 1-(1-(2-((1r,3r)-3-methoxycyclobutyl)-3-oxo-2,3-dihydro-1H-pyrazolo[3,4-b]pyridin-5-yl)piperidin-4-yl)-1-methyl-3-(1-methyl-2-oxo-5-(trifluoromethyl)-1,2-dihydropyridin-3-yl)urea]

Kd, < 10 nM:
Cn1cc(C(F)(F)F)cc(NC(=O)N(C)[C@H]2CC[C@@H](c3cnc4[nH]ccc4n3)CC2)c1=O [Example I-120-b, cis-1-(4-(5H-pyrrolo[2,3-b]pyrazin-2-yl)cyclohexyl)-1-methyl-3-(1-methyl-2-oxo-5-(trifluoromethyl)-1,2-dihydropyridin-3-yl)urea]
CN(C(=O)Nc1cc(C(F)(F)F)cn(C)c1=O)C1CCN(c2cnc3[nH]cc(N4CCOCC4)c3n2)CC1 [Example I-124, 1-methyl-3-(1-methyl-2-oxo-5-(trifluoromethyl)-1,2-dihydropyridin-3-yl)-1-(1-(7-morpholino-5H-pyrrolo[2,3-b]pyrazin-2-yl)piperidin-4-yl)urea]
CNc1n[nH]c2ncc(N3CC[C@@H](N(C)C(=O)Nc4cc(C(F)(F)F)cn(C)c4=O)C(F)(F)C3)cc12 [Example I-125-a, (R)-1-(3,3-difluoro-1-(3-(methylamino)-1H-pyrazolo[3,4-b]pyridin-5-yl)piperidin-4-yl)-1-methyl-3-(1-methyl-2-oxo-5-(trifluoromethyl)-1,2-dihydropyridin-3-yl)urea]
CNc1n[nH]c2ncc(N3CC[C@H](N(C)C(=O)Nc4cc(C(F)(F)F)cn(C)c4=O)C(F)(F)C3)cc12 [Example I-125-b, (S)-1-(3,3-difluoro-1-(3-(methylamino)-1H-pyrazolo[3,4-b]pyridin-5-yl)piperidin-4-yl)-1-methyl-3-(1-methyl-2-oxo-5-(trifluoromethyl)-1,2-dihydropyridin-3-yl)urea]
C[C@H]1C[C@@H](N(C)C(=O)Nc2cc(C(F)(F)F)cn(C)c2=O)CCN1c1cnc2[nH]ccc2n1 [Example I-126-a, 1-methyl-1-((2S,4S)-2-methyl-1-(5H-pyrrolo[2,3-b]pyrazin-2-yl)piperidin-4-yl)-3-(1-methyl-2-oxo-5-(trifluoromethyl)-1,2-dihydropyridin-3-yl)urea]
C[C@@H]1C[C@H](N(C)C(=O)Nc2cc(C(F)(F)F)cn(C)c2=O)CCN1c1cnc2[nH]ccc2n1 [Example I-126-b, 1-methyl-1-((2R,4R)-2-methyl-1-(5H-pyrrolo[2,3-b]pyrazin-2-yl)piperidin-4-yl)-3-(1-methyl-2-oxo-5-(trifluoromethyl)-1,2-dihydropyridin-3-yl)urea]
Cn1cc(C(F)(F)F)cc(NC(=O)N2CCO[C@@H]3CN(c4cnc5[nH]ccc5n4)CC[C@H]32)c1=O [Example I-128-b, (4aR,8aR)-N-(1-methyl-2-oxo-5-(trifluoromethyl)-1,2-dihydropyridin-3-yl)-6-(5H-pyrrolo[2,3-b]pyrazin-2-yl)octahydro-1H-pyrido[3,4-b][1,4]oxazine-1-carboxamide]
CN(C(=O)Nc1cc(C(F)(F)F)cn(C)c1=O)C1CCN(c2cnn3cc(O[C@@H]4CC[C@H]4O)ncc23)CC1 [Example I-129-a, 1-(1-(6-((1R,2R)-2-hydroxycyclobutoxy)pyrazolo[1,5-a]pyrazin-3-yl)piperidin-4-yl)-1-methyl-3-(1-methyl-2-oxo-5-(trifluoromethyl)-1,2-dihydropyridin-3-yl)urea]
CN(C(=O)Nc1cc(C(F)(F)F)cn(C)c1=O)C1CCN(c2cnn3cc(O[C@H]4CC[C@@H]4O)ncc23)CC1 [Example I-129-b, 1-(1-(6-((1S,2S)-2-hydroxycyclobutoxy)pyrazolo[1,5-a]pyrazin-3-yl)piperidin-4-yl)-1-methyl-3-(1-methyl-2-oxo-5-(trifluoromethyl)-1,2-dihydropyridin-3-yl)urea]
COc1n[nH]c2ncc(N3CC[C@H](N(C)C(=O)Nc4cc(C(F)(F)F)cn(C)c4=O)[C@H](C)C3)cc12 [Example I-131-a, 1-((3R,4S)-1-(3-methoxy-1H-pyrazolo[3,4-b]pyridin-5-yl)-3-methylpiperidin-4-yl)-1-methyl-3-(1-methyl-2-oxo-5-(trifluoromethyl)-1,2-dihydropyridin-3-yl)urea]
COc1n[nH]c2ncc(N3CC[C@H](N(C)C(=O)Nc4cc(C(F)(F)F)cn(C)c4=O)C[C@@H]3C)cc12 [Example I-133-a, 1-((2S,4S)-1-(3-methoxy-1H-pyrazolo[3,4-b]pyridin-5-yl)-2-methylpiperidin-4-yl)-1-methyl-3-(1-methyl-2-oxo-5-(trifluoromethyl)-1,2-dihydropyridin-3-yl)urea]
COc1n[nH]c2ncc(N3CC[C@@H](N(C)C(=O)Nc4cc(C(F)(F)F)cn(C)c4=O)C[C@H]3C)cc12 [Example I-133-b, 1-((2R,4R)-1-(3-methoxy-1H-pyrazolo[3,4-b]pyridin-5-yl)-2-methylpiperidin-4-yl)-1-methyl-3-(1-methyl-2-oxo-5-(trifluoromethyl)-1,2-dihydropyridin-3-yl)urea]
